Legend:
[1] = system: L. (L.) infantum promastigotes; assay: Acidocalcisomes alkalinization (acridine orange); type: cell-based, Leishmania (L.) infantum; details: compound 1 169.2 µM, nigericin 4 µM; after 20 min; vs untreated
Method: Promastigotes (2 × 10^6/well) were pretreated with acridine orange (4 µM) in PBS, for 5 min at 24°C. The parasites were treated with compound 1 (169.2 µM). Fluorescence was monitored every 20 min up to 4 h in a spectrofluorometer, with excitation and emission wavelengths of 485 and 535 nm, respectively ([22]). Nigericin (4 µM) was employed as positive control and untreated parasites as negative control ([23]).

[2] = system: Peritoneal macrophages infected with L. (L.) infantum amastigotes; assay: Nitric oxide in infected macrophages (Griess reagent); type: cell-based, BALB/c mice; details: compound 1 7.5 to 60 µM, LPS 25 µg/mL; 48 h; vs untreated
Method: L. (L.) infantum (MHOM/BR/1972/LD) promastigotes were maintained in M199 medium supplemented with 10% FBS and 0.25% hemin, pH 7.2 at 24°C. Amastigotes were isolated from golden hamsters (M. auratus) by differential centrifugation of infected spleens and the parasite’s number was determined according to Stauber ([14]). Peritoneal macrophages were obtained from the peritoneal cavity of BALB/c mice and maintained in RPMI-1640 medium supplemented with 10% FBS, pH 7.2 at 37°C.
Peritoneal macrophages (5 × 10^5/well) were infected with L. (L.) infantum amastigotes (10:1 amastigotes/macrophage) for 24 h, at 37°C with 5% CO2. Later, the cells were treated with compound 1 serially diluted (7.5 to 60 µM), under the same conditions described above. After 48 h, the supernatants were collected and incubated with Griess reagent ([28]). […] LPS (25 µg/mL) was employed as the positive control and untreated cells as the negative control ([29]).

[3] = In vivo pharmacokinetic study, intraperitoneal; set-up: species or system Wistar rats; details: 5 mg/kg intraperitoneal; for half-life: 5 mg/kg
Method: (§1) The detection and quantification of compound 1 in the blood matrices were performed after sample processing, using a liquid-liquid extraction methodology. First, 100 µL of plasma was enriched with 10 µL of PI (0.8 µg/mL). Subsequently, 500 µL of hexane was added and the mixture was vortexed for 1 min and centrifuged at 22,082 × g for 5 min. The organic phase was collected in glass tubes and the aqueous phase was subjected to the liquid-liquid extraction procedure again. In the end, the combined organic samples were completely evaporated at 60°C under nitrogen flow and reconstituted in 100 µL of 40:60 ACN:H2O + 0.1% orthophosphoric acid (pH 2.08). Finally, the extracts were centrifuged at 22,082 × g for 2 min and injected into the chromatographic system. Chromatographic analyses by HPLC were performed using a C18 column (Purospher Star LiChroCART, 55 × 4 mm, 3 µm) with gradient elution (Table 1).
Compound 1 (5 mg/kg) was administered (10 mL/kg in saline-sodium-chloride-0.9%) by intraperitoneal route, to six Wistar rats. Blood samples were collected from the caudal vein at 30 min, 1, 2, 3, 5, 6, 8, 12, and 24 h post-dosing. Plasma samples were prepared as described in the previous section and analyzed by HPLC. Concentrations below the LLOQ were considered as zero. Pharmacokinetic profile was obtained using the WinNonlin 6.4 software, determining different parameters, including half-life time (T½); maximum time (Tmax); maximum plasma concentration (Cmax); area under the curve from time zero to the last measurable concentration time (AUC0-t); area under the curve from zero to infinity (AUC0-inf); percentage of area under the curve extrapolated from the last measurable concentration time to infinity (AUCextrap); and meantime of residence (MRT).

[4] = system: L. (L.) infantum promastigotes; assay: Mitochondrial membrane electric potential (JC-1, flow cytometry); type: cell-based, Leishmania (L.) infantum; details: compound 1 169.2 µM, CCCP 10 µM; 2 and 4 h; JC-1 BL-2/BL-1 ratio; vs untreated
Method: Promastigotes (2 × 10^6/well) were treated with compound 1 (169.2 µM) for 2 and 4 h, at 24°C. Then, JC-1 (10 µM) was added and the parasites were incubated for 20 min. Fluorescence was measured in a flow cytometer with an excitation wavelength of 488 nm and emission of 530 (BL-1) and 574 nm (BL-2). Mitochondrial membrane potential was established through the ratio of BL-2/BL-1 channels ([19]). Carbonyl cyanide m-chlorophenylhydrazone (CCCP) (10 µM) was employed as positive control and untreated parasites as negative control.

[5] = system: Erythrocytes collected from BALB/c mice; assay: Hemolytic activity; type: cell-based; details: 6.25 to 200 µM, 2 h
Method: Erythrocytes collected from BALB/c mice were added to a U-shaped bottom 96-wells microplate at 3% (vol/vol) in phosphate-buffered saline (PBS), treated with compound 1 serially diluted ([…] to 200 µM) in PBS and incubated for 2 h at 24°C. To determine the hemolytic activity, cell supernatants were collected and analyzed in a spectrophotometer (570 nm) ([15]). Bidistilled water was employed as a positive control and untreated erythrocytes as a negative control.

[6] = Stability in plasma under handling and storage conditions (HPLC); type: in vitro ADME
Method: as §1
Method validation was performed following the guidelines for bioanalytical methods validation of the Food and Drug Administration and European Medicines Agency ([29], [30]). Thus, the acceptance criteria set out in these guides were adopted for the parameters of selectivity, linearity, precision, accuracy, lower limit of quantification (LLOQ), and stability. Quality controls of the lower limit of quantification (QCLOQ—0.03 µg/mL), low (QC1—0.08 µg/mL), medium (QC2—2 µg/mL), and high (QC3—5 µg/mL), were also established in accordance with the guides. […] In addition, stability was established after exposure to different conditions, mimicking storage and handling throughout the experimental process (Table 2).

[7] = Wistar, rat, plasma, ip, female rats
[8] = Wistar, rat, plasma, ip, male rats
[9] = both sexes, rat, plasma, ip, single dose, Wistar rats, males + females (mean ± SD)

## C=CCc1cc(OC)c(OCc2ccc(OC)cc2)c(Oc2ccc(CN3CCOCC3)cc2OC)c1 [compound 1, 4-(4-(5-allyl-3-methoxy-2-((4-methoxybenzyl)oxy)phenoxy)-3-methoxybenzyl)morpholine]
[1]
  acridine orange fluorescence levels (acidocalcisomes): significantly higher
[2]
  NO levels: remained similar
[3]; single dose, Wistar rats, males + females (mean ± SD)
  T1/2: 21.08 ± 17.72 h
[3]; [7]
  AUC(0-t): 980 ng·h/mL
  Cmax: 200 ng/mL
  MRT: 12.8 h
  Tmax: 0.5 h
[3]; [8]
  AUC(0-t): 650 ng·h/mL
  Cmax: 100 ng/mL
  MRT: 41.1 h
  Tmax: 1.5 h
[3]; both sexes, Wistar, rat, plasma, ip, single dose, Wistar rats, males + females (mean ± SD)
  half-life: 1260 min
[3]; [9]
  AUC(0-inf): 1270 ± 340 ng·h/mL
  AUC(0-t): 810 ± 300 ng·h/mL
  Cmax: 150 ± 80 ng/mL
  MRT: 26.9 ± 23.2 h
  Tmax: 1 ± 1.22 h
[3]; female, Wistar, rat, plasma, ip, female rats
  half-life: 643 min
[3]; male, Wistar, rat, plasma, ip, male rats
  half-life: 1890 min
[4]
  mitochondrial membrane electric potential (ΔΨm): significant depolarization
[5]
  hemolysis: no hemolysis
[6]; 0.08 µg/mL, processed sample, 2 h at room temperature
  Stability/reference analyte concentration (%): 98.35%
[6]; 0.08 µg/mL, processed sample, 24 h at 4°C
  Stability/reference analyte concentration (%): 99.12%
[6]; 0.08 µg/mL, unprocessed sample, 2 h at room temperature
  Stability/reference analyte concentration (%): 86.54%
[6]; 0.08 µg/mL, unprocessed sample, 6 h at 4°C
  Stability/reference analyte concentration (%): 91.74%
[6]; 0.08 µg/mL, unprocessed sample, 24 h at 4°C
  Stability/reference analyte concentration (%): 87.07%
[6]; 0.08 µg/mL, unprocessed sample, 15 days at −20°C
  Stability/reference analyte concentration (%): 85.36%
[6]; 0.08 µg/mL, unprocessed sample, 30 days at −20°C
  Stability/reference analyte concentration (%): 92.66%
[6]; 0.08 µg/mL, unprocessed sample, freezing/thawing
  Stability/reference analyte concentration (%): 88.58%
[6]; 5.00 µg/mL, processed sample, 2 h at room temperature
  Stability/reference analyte concentration (%): 100.43%
[6]; 5.00 µg/mL, processed sample, 24 h at 4°C
  Stability/reference analyte concentration (%): 98.84%
[6]; 5.00 µg/mL, unprocessed sample, 2 h at room temperature
  Stability/reference analyte concentration (%): 90.90%
[6]; 5.00 µg/mL, unprocessed sample, 6 h at 4°C
  Stability/reference analyte concentration (%): 95.92%
[6]; 5.00 µg/mL, unprocessed sample, 24 h at 4°C
  Stability/reference analyte concentration (%): 91.65%
[6]; 5.00 µg/mL, unprocessed sample, 15 days at −20°C
  Stability/reference analyte concentration (%): 90.53%
[6]; 5.00 µg/mL, unprocessed sample, 30 days at −20°C
  Stability/reference analyte concentration (%): 93.24%
[6]; 5.00 µg/mL, unprocessed sample, freezing/thawing
  Stability/reference analyte concentration (%): 97.49%

Source: PMC11539218 (Antimicrobial Agents and Chemotherapy, 2024)
